Here are results for one molecule from PMC9220251, “Modulation of the 20S Proteasome Activity by Porphyrin Derivatives Is Steered through Their Charge Distribution” (Biomolecules, 2022).

The test system of assay [1] is T1, human 20S proteasome (h20S).
T1 construct: gene PSMA6; purified 20S core particle, purchased from Boston Biochem; 28 subunits in four heptameric rings; no regulatory particle; with Proteasome subunit beta type-6; Proteasome subunit beta type-7; Proteasome subunit beta type-3; Proteasome subunit beta type-2; Proteasome subunit beta type-1; Proteasome subunit beta type-4
Kind of assay: STD-NMR and WaterLOGSY. As to conditions: 50 mM HEPES, 100 mM NaCl, 1 mM DTT, 298 K; TMPC 175 μM. Format: binding.

In assay [2] the target is T1, human 20S proteasome (h20S). Put plainly: Suc-LLVY-AMC hydrolysis, global fit of kcat and Km against TMPC (two-state model, n = […], m = […]). Format: biochemical. As to conditions: competitive inhibitory site, substrate-free enzyme in basal state A; model also has three cooperative allosteric sites and state B with separate constants (KAU, KAL, KBU, KBL, KBI); 50 mM Tris-HCl pH.

pKd: −log10 of the molar value.

Take `C[n+]1ccc(-c2c3nc(c(-c4cc[n+](C)cc4)c4ccc([nH]4)c4ccc([nH]4)c(-c4cc[n+](C)cc4)c4ccc2[nH]4)C=C3)cc1` [TMPC]: the “STD-NMR and WaterLOGSY” value in assay [1] is given as “clearly indicate that the ligand interacts with the h20S”. In assay [2], the pKd was 6.00.

What is called pKd is the negative decadic logarithm of the Kd, by convention in mol/L.
